We go through one compound from ChEMBL document CHEMBL5625206, “Design, synthesis, and evaluation of novel pleuromutilin aryl acrylate derivatives as promising broad-spectrum antibiotics especially for combatting multi-drug resistant gram-negative bacteria” (Eur J Med Chem, 2023).

One data set deals with Escherichia coli. As to the kind of experiment: Induction of extracellular electrical conductivity in Escherichia coli ATCC 25922 at MIC incubated for 8 hrs relative to control. It counts as functional.
Data set [1] in a line: Tmax in fasted Sprague-Dawley rat at 1 mg/kg, iv by LC-MS/MS analysis. The following applies: in vivo. The data set is classed as ADME, organism-based.
In data set [2] the test system is Staphylococcus aureus. As to the kind of experiment: Induction of extracellular electrical conductivity in methicillin-resistant Staphylococcus aureus ATCC 33591 at MIC incubated for 8 hrs relative to control.
Data set [3] can be described thus: Toxicity in fasted female Sprague-Dawley rat assessed as relative liver weight ratio at 100 mg/kg, IG measured for 14 days (reference value: 3.199 +/- 0.062). It counts as organism-based. The conditions noted are these: in vivo, po, 336 h, time 14 day.
The subject of data set [4] is Staphylococcus aureus. Nature of the data set: Antibacterial activity against methicillin-resistant Staphylococcus aureus ATCC 33591 infected in neutropenic Kunming mouse model assessed as reduction in infection-induced inflammatory cell inflammation in liver at 10 mg/kg, ip measured after 7 days. The data set is classed as functional, organism-based. The conditions noted are these: time 7.0 day.

In data set [5] the test system is Staphylococcus aureus. As to the kind of experiment: Antibacterial activity against methicillin-resistant Staphylococcus aureus ATCC 33591 infected in neutropenic Kunming mouse model assessed as restoration of infection- induced change in cell morphology in kidney at 20 mg/kg, ip measured after 7 days. The data set is classed as functional, organism-based. The conditions noted are these: time 7.0 day.

The nature of data set [6]: Toxicity in fasted male Sprague-Dawley rat assessed as relative lung weight ratio at 100 mg/kg, IG measured for 14 days (reference value: 0.437 +/- 0.064). The data set is classed as organism-based. The conditions noted are these: in vivo, po, 336 h, time 14 day.
Data set [7] can be described thus: Toxicity in fasted female Sprague-Dawley rat assessed as body weight at 331 mg/kg, IG measured after 7 days (reference value: 188.2 +/- 9.2 g). The data set is classed as organism-based. The conditions noted are these: in vivo, po, 168 h, time 7 day.
The subject of data set [8] is Staphylococcus aureus. Nature of the data set: Antibacterial activity against methicillin-resistant Staphylococcus aureus 171 clinical isolate assessed as bacterial growth inhibition incubated for 24 hrs by CLSI based broth microdilution method. The data set is classed as functional. (In general: Broth dilution looks for growth in wells or tubes with falling amounts of substance.)

The subject of data set [9] is Staphylococcus aureus. As to the kind of experiment: Antibacterial activity against methicillin-resistant Staphylococcus aureus ATCC 33591 infected in neutropenic Kunming mouse model assessed as reduction in infection-induced liver damage at 20 mg/kg, ip measured after 7 days. It counts as functional, organism-based. The conditions noted are these: time 7.0 day.
A short description of data set [10]: Toxicity in fasted male Sprague-Dawley rat assessed as relative heart weight ratio at 148 mg/kg, IG measured for 14 days (reference value: 0.396 +/- 0.043). The conditions noted are these: in vivo, po, 336 h, time 14 day. The data set is classed as organism-based.
Data set [11] concerns Staphylococcus aureus. As to the kind of experiment: Antibacterial activity against methicillin-resistant Staphylococcus aureus ATCC 33591 infected in neutropenic Kunming mouse model assessed as reduction in infection-induced inflammatory cell infiltration in lung at 20 mg/kg, ip measured after 7 days. The data set is classed as functional, organism-based. The following applies: time 7.0 day.

The structures appear in SMILES notation. Values after ≈ are worked out from the molar mass of the structure shown. Active and inactive are the calls of the source.

By Tmax is commonly meant the time at which the peak concentration occurs. What is called MIC is the smallest concentration in the dilution series that meets the test's criterion for growth inhibition. Consider `C=C[C@]1(C)C[C@@H](OC(=O)COC(=O)/C=C/c2ccc(N(C)C)cc2)[C@]2(C)[C@H](C)CC[C@]3(CCC(=O)[C@H]32)[C@@H](C)[C@@H]1O`, for which the Activity is recorded as 15.45% in the data set with Escherichia coli, 14.9% in the data set on Staphylococcus aureus [2] and 196.2 g in [7]. Further, the Tmax in [1] was determined as 4.98 min. For the same compound, the values for the Ratio in data set [3], in data set [6] and in data set [10] were 3.195, 0.44 and 0.379, respectively. The outcome in the data set with Staphylococcus aureus [4] was inactive. Also, the outcome with Staphylococcus aureus [5], in the data set with Staphylococcus aureus [9] and in the data set with Staphylococcus aureus [11] was Active. In addition, the MIC in the data set with Staphylococcus aureus [8] turned out to be 8 µg/mL (≈ 14.5 µM).
